Experiment: mn = molality of the nth substance listed, in mol/kg
Conditions: 99 kPa, Liquid, Alternating current cell with electrodes

CCCCCCCCCCCC[N+](C)(C)C.[Br-] [dodecyltrimethylammonium bromide] + O
electrical conductivity [S/m]
Conditions | 288.15 K | 293.15 K | 298.15 K | 303.15 K | 308.15 K | 313.15 K | 318.15 K
m1 = 0.0015 | 0.0137 | 0.014 | 0.0143 | 0.0144 | 0.0153 | 0.0169 | 0.018
m1 = 0.003 | 0.0265 | 0.027 | 0.0273 | 0.0278 | 0.0286 | 0.032 | 0.034
m1 = 0.0045 | 0.039 | 0.0397 | 0.0412 | 0.0413 | 0.042 | 0.0469 | 0.049
m1 = 0.0059 | 0.05 | 0.052 | 0.053 | 0.0545 | 0.0547 | 0.0605 | 0.0645
m1 = 0.0073 | 0.061 | 0.0635 | 0.0659 | 0.067 | 0.0675 | 0.0749 | 0.0771
m1 = 0.0087 | 0.0725 | 0.0748 | 0.0769 | 0.079 | 0.0795 | 0.088 | 0.0905
m1 = 0.0101 | 0.0837 | 0.086 | 0.089 | 0.0895 | 0.0903 | 0.101 | 0.103
m1 = 0.0116 | 0.095 | 0.0975 | 0.1 | 0.101 | 0.102 | 0.114 | 0.116
m1 = 0.013 | 0.106 | 0.108 | 0.11 | 0.112 | 0.113 | 0.126 | 0.128
m1 = 0.0144 | 0.115 | 0.118 | 0.12 | 0.122 | 0.123 | 0.135 | 0.138
m1 = 0.0157 | 0.124 | 0.126 | 0.128 | 0.129 | 0.131 | 0.142 | 0.145
m1 = 0.017 | 0.129 | 0.131 | 0.132 | 0.134 | 0.136 | 0.146 | 0.15
m1 = 0.0184 | 0.132 | 0.133 | 0.134 | 0.137 | 0.14 | 0.15 | 0.154
m1 = 0.0197 | 0.135 | 0.136 | 0.136 | 0.14 | 0.142 | 0.154 | 0.158
m1 = 0.021 | 0.137 | 0.138 | 0.139 | 0.143 | 0.145 | 0.157 | 0.161
m1 = 0.0223 | 0.139 | 0.14 | 0.142 | 0.146 | 0.148 | 0.159 | 0.163
m1 = 0.0236 | 0.141 | 0.142 | 0.143 | 0.149 | 0.152 | 0.162 | 0.167
m1 = 0.0249 | 0.143 | 0.144 | 0.146 | 0.151 | 0.154 | 0.164 | 0.17
m1 = 0.0274 | 0.146 | 0.149 | 0.15 | 0.155 | 0.158 | 0.168 | 0.174
m1 = 0.0286 | 0.148 | 0.151 | 0.153 | 0.157 | 0.16 | 0.17 | 0.177
m1 = 0.0298 | 0.15 | 0.154 | 0.156 | 0.159 | 0.162 | 0.172 | 0.179
